Data from patent US6399745B1, “Use of leptin antagonists for treating insulin resistance in type II diabetes” (Aventis Pharma Deutschland GmbH, priority 1996, dated 2002).

Key:
isolated rat adipocytes [1] = experiment: Lipogenesis (incorporation of D-glucose into toluene-extractable lipids) in isolated rat adipocytes after primary culture with leptin; format: cell-based; conditions: for Lipogenesis, stimulation factor for insulin (stimulated/basal): Insulin concentration: 5 nM
Method: Adipocytes were prepared from the epididymal fat tissue of male Wistar rats (140-160 g, Hoechst AG breeding station, Kastengrund) by means of digesting with collagenase (Rodbell, 1964, J. Biol. Chem. 239, 375-380), washed twice with KRH (25 mM Hepes free acid, 25 mM Hepes sodium salt, 80 mM NaCl, 1 mM MgSO4, 2 mM CaCl2, 6 mM KCl, 1 mM sodium pyruvate, 0.5% BSA) and once with DMEM (Dulbecco's minimal essential medium), supplemented with 5.5 mM glucose, 20 mM Hepes (pH 7.4), 2% fetal calf serum, 1% BSA, 50 U of penicillin/ml, […], by means of flotation (800×g, 1 min, in small plastic tubes), and finally diluted to a volume of 20 ml of DMEM/g wet weight of the fat tissue (cell titer: approximately 2.5×10^5 cells/ml). The adipocytes were incubated, at 37° C. for 15-18 h under an atmosphere of 5% CO2 and with gentle shaking, in supplemented (see above) DMEM in the presence of 100 nM phenylisopropyladenosine (4 ml of DMEM to 1 ml of cells, cell titer approximately 5×10^4 cell/ml, in 50 ml sterile polypropylene: tubes) and in the presence or absence of leptin. The adipocytes were subsequently washed three times with cold KRH and adjusted to a cell titer of approximately 3×10^5 cells/ml by adding 0.7 ml of glucose-free KRH to the cell layer which remained after the complete removal of the last washing solution. In order to determine the capacity of the adipocytes to be stimulated by insulin, and their sensitivity to insulin, following the primary culture, the washed adipocytes were incubated at 37° C. for 20 min in the absence or presence of human insulin (0.02-50 nM final concentration), and glucose transport or lipogenesis was then measured. Lipogenesis was measured as the incorporation of D-glucose into toluene-extractable lipids (Moody et al., 1974, Horm. Metab. Res. 6, 12-16). 200 μl of the adipocyte suspension in KRH were incubated in scintillation vials, at 37° C. for 20 min, in 680 μl of KRH which was supplemented with 3.5 mM glucose and 20 μl of insulin solution. Lipogenesis was started by adding 100 μl of D-[3-^3H]glucose (25 μCi/ml KRH). After incubating at 37° C., and gently shaking under an atmosphere of 5% CO2, for 90 min, 10 ml of scintillation fluid (toluene-based) were added and the radioactivity in the toluene phase was determined after shaking vigorously and subsequent phase separation (at least 4 h of incubation). The radioactivity of the lipids in the toluene phase was corrected for the radioactivity of an incubation mixture which contained the same quantity of [^3H]glucose but no cells. Isolated rat adipocytes were incubated for 15 h in primary culture in the presence or absence of increasing concentrations of leptin. The cells were then washed and tested for glucose transport and lipogenesis in the basal and insulin (10 nM)-stimulated states. The stimulation factor for insulin was calculated as the ratio between insulin-stimulated and basal activities. Each value represents the mean from two independent adipocyte cultures with activity being determined two or three times in each case.

isolated rat adipocytes [2] = experiment: Antagonism of fragment 116-167 to the leptin effect: insulin-stimulated glucose transport; format: cell-based
Method: Adipocytes were prepared from the epididymal fat tissue of male Wistar rats (140-160 g, Hoechst AG breeding station, Kastengrund) by means of digesting with collagenase (Rodbell, 1964, J. Biol. Chem. 239, 375-380), washed twice with KRH (25 mM Hepes free acid, 25 mM Hepes sodium salt, 80 mM NaCl, 1 mM MgSO4, 2 mM CaCl2, 6 mM KCl, 1 mM sodium pyruvate, 0.5% BSA) and once with DMEM (Dulbecco's minimal essential medium), supplemented with 5.5 mM glucose, 20 mM Hepes (pH 7.4), 2% fetal calf serum, 1% BSA, 50 U of penicillin/ml, […], by means of flotation (800×g, 1 min, in small plastic tubes), and finally diluted to a volume of 20 ml of DMEM/g wet weight of the fat tissue (cell titer: approximately 2.5×10^5 cells/ml). […]
Glucose transport was measured as the specific uptake of the non-metabolizable glucose analog 2-deoxyglucose (Muller and Wied, 1993, Diabetes 42, 1852-1867). […] After 10 ml of scintillation fluid (water-based) had been added, the radioactivity associated with the cells was measured. […]
Isolated rat adipocytes were incubated for 17.5 h in primary culture in the presence or absence of leptin (10 nM) and increasing concentrations of leptin fragment 116-167. […] The stimulation factor for insulin was calculated as the ratio between the insulin-stimulated activity and the basal activity. […]

| Substance | Lipogenesis, stimulation factor for insulin (stimulated/basal) (isolated rat adipocytes [1]; no leptin) | Glucose Transport, stimulation factor for insulin (stimulated/basal) (isolated rat adipocytes [2]; Insulin only, 5 nM (no leptin, no fragment)) | Lipogenesis, stimulation factor for insulin (stimulated/basal) (isolated rat adipocytes [1]; leptin 0.3 nM 15 h) | Lipogenesis, stimulation factor for insulin (stimulated/basal) (isolated rat adipocytes [1]; leptin 1 nM 15 h) | Lipogenesis, stimulation factor for insulin (stimulated/basal) (isolated rat adipocytes [1]; leptin 3 nM 15 h) | Lipogenesis, stimulation factor for insulin (stimulated/basal) (isolated rat adipocytes [1]; leptin 10 nM 15 h) | Lipogenesis, stimulation factor for insulin (stimulated/basal) (isolated rat adipocytes [1]; leptin 30 nM 15 h) | Lipogenesis, stimulation factor for insulin (stimulated/basal) (isolated rat adipocytes [1]; leptin 100 nM 15 h) | insulin sensitivity of stimulation of lipogenesis (isolated rat adipocytes [1]; leptin, basal values unaffected) | Glucose Transport, stimulation factor for insulin (stimulated/basal) (isolated rat adipocytes [2]; Leptin: 10 nM 17.5 h, no fragment, Insulin: 5 nM) |
| --- | --- | --- | --- | --- | --- | --- | --- | --- | --- | --- |
| Insulin: human insulin used to stimulate adipocytes [reference compound] | 3.9 | 13.4 |  |  |  |  |  |  |  |  |
| Leptin |  |  | 3.9 | 3.2 | 2.15 | 1.5 | 1.15 | 1.05 | drastically reduced | 3.55 |
